Laboratory results published in ChEMBL document CHEMBL1201862, “PubChem BioAssay data set” (2004).
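Assay format: 96-well plates, 48-hour exposure. GI50 = concentration required for 50% inhibition of growth.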 The source made the active and inactive calls. No stated cut-off is given here; in the data, active = GI50 up to about 1.1 µM and inactive = higher.

How the values were obtained:
Experiment in all cases: NCI-60 cell line screen, 48 h
[1] = tested on: CAKI-1
[2] = tested on: COLO 205
[3] = tested on: EKVX
[4] = tested on: HL-60
[5] = tested on: HOP-62
[6] = tested on: HT-29
[7] = tested on: K562
[8] = tested on: LOX IMVI
[9] = tested on: NCI-H460
[10] = tested on: NCI-H522
[11] = tested on: RPMI-8226
[12] = tested on: RXF 393
[13] = tested on: SF-268
[14] = tested on: SF-539
[15] = tested on: SK-MEL-28
[16] = tested on: SK-MEL-5
[17] = tested on: SN12C
[18] = tested on: U-251
[19] = tested on: M14
[20] = tested on: MCF7

Structure (SMILES) | GI50 [1] | GI50 [2] | GI50 [3] | GI50 [4] | GI50 [5] | GI50 [6] | GI50 [7] | GI50 [8] | GI50 [9] | GI50 [10] | GI50 [11] | GI50 [12] | GI50 [13] | GI50 [14] | GI50 [15] | GI50 [16] | GI50 [17] | GI50 [18] | GI50 [19] | GI50 [20]
N/N=C(\C(=O)Nc1c(Cl)cc([N+](=O)[O-])cc1Cl)C(c1cnc2ccc([N+](=O)[O-])cc2n1)[N+](=O)[O-] (stereo not given) | 66.1 µM (inactive) | > 100 µM (inactive) | 37.8 µM (inactive) | 28.1 µM (inactive) | > 100 µM (inactive) | > 100 µM (inactive) | 46.6 µM (inactive) | > 100 µM (inactive) | > 100 µM (inactive) | 9.98 µM (inactive) | 42.8 µM (inactive) | > 100 µM (inactive) | > 100 µM (inactive) | > 100 µM (inactive) | > 100 µM (inactive) | > 100 µM (inactive) | 95.7 µM (inactive) | > 100 µM (inactive) | – | –
C[n+]1[se]c2ccccc2c1Cl | > 41.8 µM (inactive) | > 43.9 µM (inactive) | 24.1 µM (inactive) | 7.89 µM (inactive) | > 40.7 µM (inactive) | 28.4 µM (inactive) | 36.4 µM (inactive) | 19.9 µM (inactive) | 35.3 µM (inactive) | 20.3 µM (inactive) | 33.1 µM (inactive) | 19.5 µM (inactive) | 20.9 µM (inactive) | 19.3 µM (inactive) | 23.4 µM (inactive) | 16.6 µM (inactive) | 15.5 µM (inactive) | 30.9 µM (inactive) | 13.7 µM (inactive) | –
COc1ccc(/C(Cl)=C(\C=O)c2ccc(F)cc2)cc1 | 8.18 µM (inactive) | 16.6 µM (inactive) | 16.9 µM (inactive) | 2.72 µM (inactive) | 9.59 µM (inactive) | 7.41 µM (inactive) | 4.78 µM (inactive) | 7.03 µM (inactive) | 4.46 µM (inactive) | 4.06 µM (inactive) | 4.49 µM (inactive) | – | 8.36 µM (inactive) | 15.5 µM (inactive) | 16.7 µM (inactive) | 9.06 µM (inactive) | 9.98 µM (inactive) | 6.58 µM (inactive) | 12.9 µM (inactive) | –
C[Si](C)(C)/C(I)=C/CO | – | 16.3 µM (inactive) | 29.9 µM (inactive) | – | – | 20.5 µM (inactive) | 19.4 µM (inactive) | 19.3 µM (inactive) | 19.7 µM (inactive) | 16.1 µM (inactive) | 17.4 µM (inactive) | – | 27.1 µM (inactive) | 20 µM (inactive) | 27.9 µM (inactive) | 19 µM (inactive) | 22 µM (inactive) | 18.3 µM (inactive) | 35.2 µM (inactive) | –
CC(=C(c1ccccc1)c1ccccc1)N1C(=O)CC(=O)N1C | 21.1 µM (inactive) | > 100 µM (inactive) | 53.3 µM (inactive) | – | 27.5 µM (inactive) | > 100 µM (inactive) | 55.5 µM (inactive) | 17 µM (inactive) | 29.2 µM (inactive) | – | 32.6 µM (inactive) | 15.4 µM (inactive) | 25.5 µM (inactive) | 26.3 µM (inactive) | 55.5 µM (inactive) | 95.7 µM (inactive) | > 100 µM (inactive) | 61.4 µM (inactive) | 24.7 µM (inactive) | 43.8 µM (inactive)
COC(=O)C(/C(=N/NC(N)=S)C(=O)Nc1ccccc1[N+](=O)[O-])c1cnc2ccccc2n1 (stereo not given) | > 100 µM (inactive) | > 100 µM (inactive) | > 100 µM (inactive) | > 100 µM (inactive) | > 100 µM (inactive) | > 100 µM (inactive) | > 100 µM (inactive) | > 100 µM (inactive) | > 100 µM (inactive) | > 100 µM (inactive) | > 100 µM (inactive) | > 100 µM (inactive) | > 100 µM (inactive) | > 100 µM (inactive) | > 100 µM (inactive) | > 100 µM (inactive) | > 100 µM (inactive) | > 100 µM (inactive) | > 100 µM (inactive) | –
CCOC(=O)C(=O)NC12CC3CC(CC(C3)C1)C2 | > 100 µM (inactive) | > 100 µM (inactive) | > 100 µM (inactive) | > 100 µM (inactive) | > 100 µM (inactive) | > 100 µM (inactive) | > 100 µM (inactive) | 0.208 µM (active) | > 100 µM (inactive) | > 100 µM (inactive) | > 100 µM (inactive) | > 100 µM (inactive) | > 100 µM (inactive) | > 100 µM (inactive) | > 100 µM (inactive) | > 100 µM (inactive) | > 100 µM (inactive) | > 100 µM (inactive) | > 100 µM (inactive) | –
Cc1cc(O)c2c(c1O)C(=O)C13C(=C(O)C4C(O)C1C1C(O)C3C(O)=C3C(=O)c5c(O)cc(C)c(O)c5C(=O)C341)C2=O (stereo not given) | 0.209 µM (active) | 0.0276 µM (active) | 0.0845 µM (active) | – | 0.207 µM (active) | 0.0451 µM (active) | 0.0322 µM (active) | 0.106 µM (active) | 0.0348 µM (active) | 0.185 µM (active) | 0.0121 µM (active) | 0.0491 µM (active) | 0.0542 µM (active) | 0.134 µM (active) | 0.106 µM (active) | 0.15 µM (active) | 0.0471 µM (active) | 0.0214 µM (active) | – | 0.0577 µM (active)
Cc1ccc2c3c1[C@@H]1O[C@@H]1c1cccc(c1-3)[C@@H]1O[C@H]21 | 16.4 µM (inactive) | 15.8 µM (inactive) | 16.1 µM (inactive) | – | 15.7 µM (inactive) | 6.07 µM (inactive) | 4.29 µM (inactive) | 2.4 µM (inactive) | – | 12.2 µM (inactive) | – | – | 12.8 µM (inactive) | – | 10.2 µM (inactive) | 15 µM (inactive) | 11.1 µM (inactive) | 11.9 µM (inactive) | 11 µM (inactive) | 4.66 µM (inactive)
O=C(CC/C=C(/CS(=O)(=O)c1ccccc1)S(=O)(=O)c1ccccc1)c1ccccc1 | – | – | > 100 µM (inactive) | 42.9 µM (inactive) | > 100 µM (inactive) | 75 µM (inactive) | > 100 µM (inactive) | > 100 µM (inactive) | > 100 µM (inactive) | 10.4 µM (inactive) | > 100 µM (inactive) | 70.8 µM (inactive) | – | > 100 µM (inactive) | > 100 µM (inactive) | > 100 µM (inactive) | > 100 µM (inactive) | 72.3 µM (inactive) | > 100 µM (inactive) | –
O=C(OCc1ccccc1)OOC(=O)OCc1ccccc1 | > 100 µM (inactive) | > 100 µM (inactive) | > 100 µM (inactive) | > 100 µM (inactive) | > 100 µM (inactive) | > 100 µM (inactive) | > 100 µM (inactive) | – | > 100 µM (inactive) | > 100 µM (inactive) | > 100 µM (inactive) | > 100 µM (inactive) | > 100 µM (inactive) | > 100 µM (inactive) | > 100 µM (inactive) | > 100 µM (inactive) | > 100 µM (inactive) | > 100 µM (inactive) | > 100 µM (inactive) | –
COc1c2c(cc3c(CCc4ccccc4)cc(=O)oc13)CCC(C)(C)O2 | – | > 100 µM (inactive) | > 100 µM (inactive) | > 100 µM (inactive) | > 100 µM (inactive) | > 100 µM (inactive) | > 100 µM (inactive) | > 100 µM (inactive) | > 100 µM (inactive) | – | > 100 µM (inactive) | > 100 µM (inactive) | > 100 µM (inactive) | – | > 100 µM (inactive) | > 100 µM (inactive) | > 100 µM (inactive) | > 100 µM (inactive) | > 100 µM (inactive) | –
CN1C(=O)CC(=O)N1/C(=C/c1ccccc1)c1ccccc1 | 23.7 µM (inactive) | 41 µM (inactive) | > 100 µM (inactive) | – | > 100 µM (inactive) | > 100 µM (inactive) | 55.6 µM (inactive) | 17 µM (inactive) | 48 µM (inactive) | – | 37.1 µM (inactive) | 14 µM (inactive) | > 100 µM (inactive) | – | > 100 µM (inactive) | 72.8 µM (inactive) | > 100 µM (inactive) | > 100 µM (inactive) | 65.8 µM (inactive) | 47.2 µM (inactive)
COC(=O)C(Cc1ccc(N(C)C)cc1)(NC(=O)c1ccccc1)P(=O)(OC)OC (stereo not given) | > 100 µM (inactive) | > 100 µM (inactive) | > 100 µM (inactive) | > 100 µM (inactive) | > 100 µM (inactive) | > 100 µM (inactive) | > 100 µM (inactive) | > 100 µM (inactive) | > 100 µM (inactive) | > 100 µM (inactive) | > 100 µM (inactive) | > 100 µM (inactive) | > 100 µM (inactive) | > 100 µM (inactive) | > 100 µM (inactive) | > 100 µM (inactive) | > 100 µM (inactive) | > 100 µM (inactive) | > 100 µM (inactive) | –
O=S1(=O)CC#CC[C@@H](CO)[C@@H](CO)CC#CC1 | – | – | > 100 µM (inactive) | 53.7 µM (inactive) | > 100 µM (inactive) | > 100 µM (inactive) | 59 µM (inactive) | 69.3 µM (inactive) | > 100 µM (inactive) | 17.9 µM (inactive) | – | > 100 µM (inactive) | – | > 100 µM (inactive) | 72.3 µM (inactive) | > 100 µM (inactive) | > 100 µM (inactive) | > 100 µM (inactive) | 40.1 µM (inactive) | –
CN(C)C(=O)C(F)(F)C(c1ccc(Br)cc1)C1C(=O)N(C)C(=O)N(C)C1=O (stereo not given) | > 100 µM (inactive) | > 100 µM (inactive) | > 100 µM (inactive) | – | > 100 µM (inactive) | – | > 100 µM (inactive) | > 100 µM (inactive) | > 100 µM (inactive) | – | > 100 µM (inactive) | > 100 µM (inactive) | > 100 µM (inactive) | – | > 100 µM (inactive) | > 100 µM (inactive) | – | > 100 µM (inactive) | > 100 µM (inactive) | > 100 µM (inactive)
